For 17 molecules, IC90 results are on record in patent US20230203043A1, “NOVEL IMIDAZOPYRAZINE DERIVATIVES” (Hoffmann-La Roche Inc., priority 2020, published 2023).

One may read the IC90 as the concentration needed for an effect of 90%.

Structures can show the parent of a compound that is named as a salt.

The subject of one test is Acinetobacter baumannii ATCC17961. The test can be described thus: Antimicrobial susceptibility testing: 90% growth inhibitory concentration (IC90) determination in Iso-Sensitest broth, OD600 growth. The note with it: Acinetobacter baumannii, ATCC17961, 16 h, read-out: A. baumannii ATCC 17961 IC90 (uM), strain ATCC 17961, OD600 growth over 16 h. Type of test: cell-based. In a few lines: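 Twofold compound dilutions (e.g. 50 to 0.097 μM final) in Iso-Sensitest broth with ~5×10^(5) CFU/ml, 35±2 °C. OD600 read every 20 min over 16 h; IC90 from growth inhibition during logarithmic phase.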
Turning to `Cc1cc(Nc2nccn3c(-c4cn(CC#N)nc4C(F)(F)F)cnc23)ccc1C(=O)N1CCN(C(=O)C2(O)CCNCC2)CC1` [Example 425, formic acid; 2-[4-[8-[4-[4-(4-hydroxypiperidine-4-carbonyl]piperazine-1-carbonyl]-3-methylanilino]imidazo[1,2-a]pyrazin-3-yl]-3-(trifluoromethyl)pyrazol-1-yl]acetonitrile], the IC90 came out at 0.691 µM.
The same measure, in the same setting: the same measure for `N#CCn1cc(-c2cnc3c(Nc4ccc(C(=O)N5CCN(C(=O)C6CC(N)C6)CC5)c(Cl)c4)nccn23)c(C(F)(F)F)n1` (centres unmarked) [Example 189, 2-[4-[8-[4-[4-(3-aminocyclobutanecarbonyl)piperazine-1-carbonyl]-3-chloroanilino]imidazo[1,2-a]pyrazin-3-yl]-3-(trifluoromethyl)pyrazol-1-yl]acetonitrile formate]: 0.204 µM; for `CCc1cc(Nc2nccn3c(-c4cn(CC#N)nc4C(F)(F)F)cnc23)ccc1C(=O)N[C@H](C)C(=O)NC1CC(N)C1` (stereo partly drawn) [Example 790, N-[(1R)-2-[(3-aminocyclobutyl)amino]-1-methyl-2-oxo-ethyl]-4-[[3-[1-(cyanomethyl)-3-(trifluoromethyl)pyrazol-4-yl]imidazo[1,2-a]pyrazin-8-yl]amino]-2-ethyl-benzamide formate]: 1.64 µM.
`N#CCn1cc(-c2cnc3c(Nc4ccc(C(=O)N5CCN(C(=O)[C@@H]6CC[C@@H](N)C6)CC5)c(Cl)c4)nccn23)c(C(F)(F)F)n1` [Example 573, 2-(4-(8-((4-(4-((1R,3R)-3-aminocyclopentane-1-carbonyl)piperazine-1-carbonyl)-3-chlorophenyl)amino)imidazo[1,2-a]pyrazin-3-yl)-3-(trifluoromethyl)-1H-pyrazol-1-yl)acetonitrile formate]: the IC90 was 0.169 µM.
The same measure, in the same setting: the same measure for `C=C(Cl)Cn1cc(-c2cnc3c(Nc4ccc(C(=O)NCCOCCN)c(CC)c4)nccn23)c(C(F)(F)F)n1` [Example 274, N-[2-(2-aminoethoxy)ethyl]-4-[[3-[1-(2-chloroprop-2-enyl)-3-(trifluoromethyl)pyrazol-4-yl]imidazo[1,2-a]pyrazin-8-yl]amino]-2-ethylbenzamide formate]: 0.101 µM; for `Cc1cc(Nc2nccn3c(-c4cn(C)nc4C(F)(F)F)cnc23)ccc1C(=O)NCCCNC(=O)[C@@H]1C[C@@H](O)CN1` [Example 455, formic acid; (2S,4R)-4-hydroxy-N-[3-[[2-methyl-4-[[3-[1-methyl-3-(trifluoromethyl)pyrazol-4-yl]imidazo[1,2-a]pyrazin-8-yl]amino]benzoyl]amino]propyl]pyrrolidine-2-carboxamide]: 1.21 µM.
As to `N#CCn1cc(-c2cnc3c(Nc4ccc(C(=O)N5CCN(C(=O)[C@H]6CC[C@@H](N)C6)CC5)c(Cl)c4)nccn23)c(C(F)(F)F)n1` [Example 192, 2-[4-[8-[4-[4-[(1S,3R)-3-aminocyclopentanecarbonyl]piperazine-1-carbonyl]-3-chloroanilino]imidazo[1,2-a]pyrazin-3-yl]-3-(trifluoromethyl)pyrazol-1-yl]acetonitrile formate], the IC90 is 0.208 µM.
Regarding `CCc1cc(Nc2nccn3c(-c4cn(C)nc4C(F)(F)F)cnc23)ccc1C(=O)NCCNC(=O)[C@@H]1C[C@](C)(O)CN1` [Example 447, (2S,4S)-N-[2-[[2-ethyl-4-[[3-[1-methyl-3-(trifluoromethyl)pyrazol-4-yl]imidazo[1,2-a]pyrazin-8-yl]amino]benzoyl]amino]ethyl]-4-hydroxy-4-methylpyrrolidine-2-carboxamide formate], the IC90 is 4.19 µM.

Still in this test, the particulars now being: Acinetobacter baumannii, ATCC17961, 16 h, strain ATCC 17961, OD600 growth over 16 h, read-out: A. baumannii ATCC 17961 IC90.
Take `C#CCn1cc(-c2cnc3c(Nc4cc(C)c(C(=O)N5CCNCC5)c(F)c4)nccn23)c(C(F)(F)F)n1` [Example 67, [2-fluoro-6-methyl-4-[[3-[1-prop-2-ynyl-3-(trifluoromethyl)pyrazol-4-yl]imidazo[1,2-a]pyrazin-8-yl]amino]phenyl]-piperazin-1-ylmethanone]: the IC90 is 0.413 µM.
Regarding `CCc1cc(Nc2nccn3c(-c4c[nH]nc4C(F)(F)F)cnc23)ccc1C(=O)N1CCN(C(=O)C2CCNCC2)CC1` [Example 354, [2-ethyl-4-[[3-[3-(trifluoromethyl)-1H-pyrazol-4-yl]imidazo[1,2-a]pyrazin-8-yl]amino]phenyl]-[4-(piperidine-4-carbonyl)piperazin-1-yl]methanone hydrochloride], the IC90 came to 0.918 µM.
In the case of `N#CCn1cc(-c2cnc3c(Nc4ccc(C(=O)N5CC[C@H](O)C5)c(Cl)c4)nccn23)c(C(F)(F)F)n1` [Example 243, 2-[4-[8-[3-chloro-4-[(3S)-3-hydroxypyrrolidine-1-carbonyl]anilino]imidazo[1,2-a]pyrazin-3-yl]-3-(trifluoromethyl)pyrazol-1-yl]acetonitrile], the IC90 worked out at 0.384 µM.
`N#CCn1cc(-c2cnc3c(Nc4ccc(C(=O)N5CCN(CC(=O)N[C@H]6CCNC6)CC5)c(Cl)c4)nccn23)c(C(F)(F)F)n1` [Example 605, (S)-2-(4-(2-chloro-4-((3-(1-(cyanomethyl)-3-(trifluoromethyl)-1H-pyrazol-4-yl)imidazo[1,2-a]pyrazin-8-yl)amino)benzoyl)piperazin-1-yl)-N-(pyrrolidin-3-yl) acetamide formate]: the IC90 came to 0.496 µM.
For `N#CCn1cc(-c2cnc3c(Nc4ccc(C(=O)N5CC(NC(=O)N[C@@H]6CCNC6)C5)c(Cl)c4)nccn23)c(C(F)(F)F)n1` [Example 171, 1-[1-[2-chloro-4-[[3-[1-(cyanomethyl)-3-(trifluoromethyl)pyrazol-4-yl]imidazo[1,2-a]pyrazin-8-yl]amino]benzoyl]azetidin-3-yl]-3-[(3R)-pyrrolidin-3-yl]urea], the IC90 came to 0.509 µM.
As to `N[C@@H]1CC[C@@H](NC(=O)c2ccc(Nc3nccn4c(-c5c[nH]nc5C(F)(F)F)cnc34)cc2Cl)C1` (racemic) [Example 407, 2-chloro-N-[rac-(1R,3R)-3-aminocyclopentyl]-4-[[3-[3-(trifluoromethyl)-1H-pyrazol-4-yl]imidazo[1,2-a]pyrazin-8-yl]amino]benzamide], the IC90 amounted to 2.96 µM.
Consider `N#CCn1cc(-c2cnc3c(Nc4ccc(C(=O)N5CCN(C(=O)N[C@H]6C[C@@H](N)C6)CC5)c(Cl)c4)nccn23)c(C(F)(F)F)n1` [Example 584, N-((1s,3s)-3-aminocyclobutyl)-4-(2-chloro-4-((3-(1-(cyanomethyl)-3-(trifluoromethyl)-1H-pyrazol-4-yl)imidazo[1,2-a]pyrazin-8-yl)amino)benzoyl) piperazine-1-carboxamide formate], for which the concentration for an effect of 90% (IC90) was found to be 0.257 µM.
With `C#CC(C)n1cc(-c2cnc3c(Nc4ccc(C(=O)N5CCN(C(=O)C(C)N)CC5)c(CC)c4)nccn23)c(C(F)F)n1` (stereo in doubt) [Example 784, (2R)-2-amino-1-(4-(4-((3-(1-(but-3-yn-2-yl)-3-(difluoromethyl)-1H-pyrazol-4-yl)imidazo [1,2-a]pyrazin-8-yl)amino)-2-ethylbenzoyl)piperazin-1-yl)propan-1-one (mixture of epimers)], the IC90 turned out to be 1.24 µM.
For the molecule `Cc1cc(Nc2nccn3c(-c4cn(CC(F)F)nc4C(F)(F)F)cnc23)cc(F)c1C(=O)NCCCCCCN` [Example 615, N-(6-aminohexyl)-4-((3-(1-(2,2-difluoroethyl)-3-(trifluoromethyl)-1H-pyrazol-4-yl)imidazo[1,2-a]pyrazin-8-yl)amino)-2-fluoro-6-methylbenzamide], the IC90 is 0.122 µM.
